Laboratory results from patent publication US20200283498A1, “T CELL RECEPTOR FUSIONS AND CONJUGATES AND METHODS OF USE THEREOF” (Altor Bioscience LLC, priority 2008, published 2020).

Tests used:
[1] = test system: human NSCLC A549-A2 tumor cells; assay: Adoptive transfer of preincubated NK cells in A549-A2 experimental metastasis model; type: in vivo, athymic nude mice; conditions: CTX 200 mg/kg ip days 14, 21; NK cells preincubated with the protein iv days 16, 22 (CTX group: no NK cells)
[2] = test system: immune cells; type: in vivo, human
Procedure: FIG. 33A is a line graph showing serum IFN-γ levels (determined by ELISA analysis) of subjects following treatment with 0.04 mg/kg ALT-801 (MTD level). FIG. 33B is a line graph showing IFN-γ ELISPOT analysis of PBMCs for subjects treated with 0.04 mg/kg ALT-801 (MTD level). Peripheral blood mononuclear cells (PBMCs) were prepared from samples collected pre-dosing (Cycles 1 & 2) and 2 hours after the drug infusion of dose 3 and 7. Following overnight incubation in medium alone or medium containing ALT-801, p53-positive A375 tumor cells or ALT-801+A375 tumor cells, activated immune effector cells were measured using ELISPOT for IFN-γ production
Based on PK profile, the IL-2 receptors on the surface of immune cells (i.e. NK cells and T-cells) in the patient are anticipated to be fully occupied by the ALT-801 circulating in the patient's serum when a dose of 0.015 mg/kg or higher is administered. […] IFN-γ is produced by activated NK and T-cells and its induction by ALT-801 likely correlates with an increase in effector cell cytolytic activity that plays a role in the antitumor responses. […] Thus the lack of treatment-related TNF-α expression may contribute to the reduced toxicity observed with ALT-801 treatment compared with high-dose IL-2.
The effects of ALT-801 on cell-mediated immune responses were also examined in treated patients. Blood samples were collected from subjects at pre-dosing on the first study drug infusion day and 2 hours after the drug infusion on the third drug infusion day during the first and second treatment cycles. Peripheral blood mononuclear cells (PBMCs) were prepared and incubated overnight in medium alone or medium containing ALT-801, p53-positive A375 tumor cells or ALT-801+A375 tumor cells. Levels of activated immune effector cells were measured using ELISPOT for interferon-gamma (IFN-γ) production. […] These cells were not found in the blood during the treatment cycle (i.e. Dose 3 and Dose 7 samples), consistent with lymphocyte migration to the tumor site. […] Together, these findings indicate that ALT-801 treatment at the MTD level provided favorable pharmacokinetics and immunostimulatory activity necessary for antitumor responses.

[3] = test system: metastatic malignancies that express HLA-A2/p53 peptide complexes; assay: Phase I/IIa clinical study of ALT-801: tumor assessment (RECIST); type: in vivo, human
Procedure: FIG. 35 sets forth Table 2 depicting preliminary tumor assessment for evaluable subjects treated with 0.015, 0.04 or 0.08 mg/kg ALT-801. […] For SD (highlighted), change in target lesions compared to baseline is indicated at week 7 or 11 after the first dose.
ALT-801 is currently being evaluated in a multi-course dose-escalation Phase I/IIa clinical study in patients with metastatic malignancies that express HLA-A2/p53 peptide complexes, the antigenic target of ALT-801. The primary endpoints in this dose-escalation study are to evaluate the safety, determine the maximum-tolerated dose (MTD), and characterize the pharmacokinetic profile of ALT-801 administered to patients with progressive metastatic malignancies. Secondary endpoints include evaluation of ALT-801 immunogenicity and assessment of the patient's immune response and anti-tumor response. Each subject enrolled receives up to a total of 8 doses of the study drug in the following schedule: once daily as an intravenous bolus for the first 4 days (cycle 1), followed by a 10-day rest period of no study drug treatment (rest period) and then once daily as an intravenous bolus for an additional 4 days (cycle 2). The trial design includes a dose escalation phase of 3-6 subjects/cohort with starting dose of 0.015 mg/kg (equivalent to approximately 50,000 IL-2 IU/kg) and an expansion phase with 10 additional patients treated at the MTD level. At least 23 patients have been treated with at least one dose of ALT-801 at the 0.015 mg/kg (4 patients), 0.04 mg/kg (13 patients) and 0.08 mg/kg (6 patients).
The effects of ALT-801 on tumors was assessed based on RECIST criteria by comparing baseline (pre-dose) CT scans with those taken in follow-up visits at week 7 and 11.

[4] = test system: human PBMCs and purified NK cells; assay: In vitro activation of human PBMCs and purified NK cells by ALT-801; type: cell-based; conditions: concentrations observed in patients; overnight incubation

ALT-801: recombinant humanized soluble single-chain TCR-cytokine fusion protein: human TCR β constant domain, murine TCR antigen-binding regions, human IL2; p53 (aa 264-272)/HLA-A2.1 specific
Median survival [1]: 85.5 days | serum IFN-γ induction by dose level ([2]; 0.04 mg/kg or 0.08 mg/kg): equivalent levels of serum IFN-γ induction that were higher than those observed at the 0.015 mg/kg dose level | serum IFN-γ concentrations ([2]; 4-8 hours after dosing, particularly following the fourth dose): increase in serum IFN-γ concentrations | immune cells responsive to ALT-801+A375 tumor cells (ELISPOT) ([2]; Pre-dose Cycle-2 sample): increase in immune cells responsive to ALT-801+A375 tumor cells | IFN-γ-positive cells in blood (ELISPOT) ([2]; during the 2-cycle course of treatment): little or no increase in IFN-γ-positive cells | patients with stable disease status ([3]; 11 weeks after treatment): approximately 50% | tumor shrinkage ([3]; cohort 3 subjects with stable disease): up to 23% | subjects with stable disease, cohort 3 ([3]; six evaluated subjects): four (three with melanoma and one with renal cell carcinoma) of six evaluated subjects of cohort 3 showed stable disease | subjects with stable disease, cohort 2 ([3]; six subjects): three (prostate cancer, head and neck cancer and renal cell carcinoma) have achieved stable disease status | change in target lesion LD compared to baseline ([3]; subject 02004 Metastatic Head and Neck, second course 0.04 mg/kg, over 9 month): −3.3% | activation of human PBMCs and purified NK cells [4]: able to fully activate human PBMCs and purified NK cells
